The results in this text go back to patent publication US11352340B2, “Pyridine and pyridimine compounds as PI3K-gamma inhibitors” (Incyte Corporation, priority 2016, dated 2022).

For test [1], the target named is PI3Kγ (p110γ) Recombinant Human Protein (Homo sapiens (Human), UniProt P48736). Put plainly: PI3K-γ Scintillation Proximity Assay. It counts as biochemical. As to conditions: read-out: PI3K-gamma SPA IC50. The method, boiled down: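 Recombinant human p110γ (13 nM) with 20 μM PIP2 and 2 μM ATP plus 0.5 μCi [γ-33P]ATP in 20 mM MOPS pH 6.7, 10 mM MgCl2, 5 mM DTT, 0.03% CHAPS, 2% DMSO, 120 min at room temperature. Product captured on WGA SPA beads and counted; IC50 fitted from % of solvent control versus log concentration.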
(SPA uses beads or plates that emit light when radiolabelled molecules are held near them.)

Test [2] addresses PI3Kδ (p110δ/p85α) Recombinant Human Protein (Homo sapiens (Human), UniProt O00329). Kind of test: PI3Kδ Scintillation Proximity Assay. The following applies: read-out: PI3K-delta SPA IC50. The test is classed as biochemical. The method, boiled down:
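Recombinant human p110δ/p85α (3.4 nM) with 20 μM PIP2 and 2 μM ATP plus [γ-33P]ATP, in 20 mM MOPS pH 6.7, 10 mM MgCl2, 5 mM DTT, 0.03% CHAPS, 2% DMSO; 120 min at room temperature. Product captured on WGA SPA beads, scintillation counted; IC50 from percent-of-control curves.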

Structures can show the parent of a compound that is named as a salt. Where only a bound is given, the exact number is not on record here.

PI3Kγ (p110γ) Recombinant Human Protein, sequence (P48736 whole entry): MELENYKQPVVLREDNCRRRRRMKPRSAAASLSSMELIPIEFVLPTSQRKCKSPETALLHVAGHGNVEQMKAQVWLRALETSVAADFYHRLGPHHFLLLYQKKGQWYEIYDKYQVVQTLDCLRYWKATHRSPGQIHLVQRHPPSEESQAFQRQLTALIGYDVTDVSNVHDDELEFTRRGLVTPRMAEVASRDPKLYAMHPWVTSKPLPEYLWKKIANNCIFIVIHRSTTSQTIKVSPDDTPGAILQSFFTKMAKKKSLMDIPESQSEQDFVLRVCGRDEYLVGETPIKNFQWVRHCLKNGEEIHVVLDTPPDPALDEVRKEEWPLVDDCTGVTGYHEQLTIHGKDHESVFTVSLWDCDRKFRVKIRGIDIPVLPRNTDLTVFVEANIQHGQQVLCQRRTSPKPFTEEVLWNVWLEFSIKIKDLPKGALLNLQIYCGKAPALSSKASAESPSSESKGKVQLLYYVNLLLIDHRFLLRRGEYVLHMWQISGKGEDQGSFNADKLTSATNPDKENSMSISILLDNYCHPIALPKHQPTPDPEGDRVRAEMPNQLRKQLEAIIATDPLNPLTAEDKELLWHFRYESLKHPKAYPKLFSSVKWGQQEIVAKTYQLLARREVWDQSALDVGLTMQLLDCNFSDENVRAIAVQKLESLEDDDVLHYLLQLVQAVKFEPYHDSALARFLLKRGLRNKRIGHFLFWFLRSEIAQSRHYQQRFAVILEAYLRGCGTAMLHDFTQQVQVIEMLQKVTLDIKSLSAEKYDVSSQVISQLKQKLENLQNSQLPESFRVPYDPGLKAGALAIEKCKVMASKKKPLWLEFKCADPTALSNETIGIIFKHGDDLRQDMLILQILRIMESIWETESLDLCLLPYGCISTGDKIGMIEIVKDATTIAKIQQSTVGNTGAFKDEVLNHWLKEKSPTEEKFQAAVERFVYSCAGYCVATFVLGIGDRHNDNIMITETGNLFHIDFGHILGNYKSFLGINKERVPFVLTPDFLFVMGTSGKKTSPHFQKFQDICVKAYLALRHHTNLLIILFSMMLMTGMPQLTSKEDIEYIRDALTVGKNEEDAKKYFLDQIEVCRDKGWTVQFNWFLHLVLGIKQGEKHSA
PI3Kδ (p110δ/p85α) Recombinant Human Protein, sequence (O00329 whole entry): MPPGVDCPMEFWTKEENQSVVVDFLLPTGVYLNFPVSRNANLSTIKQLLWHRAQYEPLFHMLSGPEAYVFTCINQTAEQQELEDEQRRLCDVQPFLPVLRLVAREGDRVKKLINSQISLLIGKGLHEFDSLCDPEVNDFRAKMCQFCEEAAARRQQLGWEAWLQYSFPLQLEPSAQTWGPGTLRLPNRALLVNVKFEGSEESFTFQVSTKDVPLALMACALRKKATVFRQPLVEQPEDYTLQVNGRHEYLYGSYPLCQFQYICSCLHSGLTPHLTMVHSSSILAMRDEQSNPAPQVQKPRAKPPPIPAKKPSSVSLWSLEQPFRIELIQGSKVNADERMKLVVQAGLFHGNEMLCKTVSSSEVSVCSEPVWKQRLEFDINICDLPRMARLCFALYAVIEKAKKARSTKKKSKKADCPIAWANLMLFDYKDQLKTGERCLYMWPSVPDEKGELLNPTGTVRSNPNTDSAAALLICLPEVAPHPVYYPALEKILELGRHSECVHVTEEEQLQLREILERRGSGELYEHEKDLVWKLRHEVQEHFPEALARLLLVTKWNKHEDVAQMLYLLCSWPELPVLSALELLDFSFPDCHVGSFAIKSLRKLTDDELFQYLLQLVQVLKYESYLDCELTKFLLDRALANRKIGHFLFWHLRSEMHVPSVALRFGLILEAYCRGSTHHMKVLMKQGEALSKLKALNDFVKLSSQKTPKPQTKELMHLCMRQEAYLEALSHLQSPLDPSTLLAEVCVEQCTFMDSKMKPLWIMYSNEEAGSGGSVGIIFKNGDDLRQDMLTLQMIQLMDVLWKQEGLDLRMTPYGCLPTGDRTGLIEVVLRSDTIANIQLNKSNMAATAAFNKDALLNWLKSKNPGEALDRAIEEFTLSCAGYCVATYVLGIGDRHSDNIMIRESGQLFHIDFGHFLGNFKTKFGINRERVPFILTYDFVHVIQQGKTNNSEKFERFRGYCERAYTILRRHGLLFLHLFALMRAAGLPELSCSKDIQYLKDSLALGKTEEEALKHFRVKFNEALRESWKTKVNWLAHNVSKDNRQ
PI3Kδ (p110δ/p85α) Recombinant Human Protein, sequence (P27986 whole entry partner): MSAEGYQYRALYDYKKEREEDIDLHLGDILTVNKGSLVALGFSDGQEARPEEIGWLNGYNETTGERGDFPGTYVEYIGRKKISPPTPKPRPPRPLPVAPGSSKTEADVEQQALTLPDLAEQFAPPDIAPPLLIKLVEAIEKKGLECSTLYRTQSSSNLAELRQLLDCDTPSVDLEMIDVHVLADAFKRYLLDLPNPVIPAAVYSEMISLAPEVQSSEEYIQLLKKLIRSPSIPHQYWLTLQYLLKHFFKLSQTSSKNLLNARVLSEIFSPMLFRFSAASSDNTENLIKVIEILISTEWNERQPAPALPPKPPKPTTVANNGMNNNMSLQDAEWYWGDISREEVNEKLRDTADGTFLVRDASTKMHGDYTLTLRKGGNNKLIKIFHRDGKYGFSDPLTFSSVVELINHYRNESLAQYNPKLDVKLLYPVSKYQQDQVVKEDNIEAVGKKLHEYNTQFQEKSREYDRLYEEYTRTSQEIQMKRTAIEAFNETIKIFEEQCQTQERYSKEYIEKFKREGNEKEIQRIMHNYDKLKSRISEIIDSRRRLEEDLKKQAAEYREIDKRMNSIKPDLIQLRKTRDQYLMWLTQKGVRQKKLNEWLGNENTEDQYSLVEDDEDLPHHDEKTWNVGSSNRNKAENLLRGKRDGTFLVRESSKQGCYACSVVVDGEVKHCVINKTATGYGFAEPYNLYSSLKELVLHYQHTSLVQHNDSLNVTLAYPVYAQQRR

For `Cc1nc(-c2cc(-c3cncc(Cl)c3)ccn2)[nH]c1C` [Example 234, 5-Chloro-2′-(4,5-dimethyl-1H-imidazol-2-yl)-3,4′-bipyridine], the IC50 in test [1] and in test [2] was at most 100 nM throughout.

As for `Cc1nc(-c2cc(-c3cncc(C4=CCN(C(=O)OC(C)(C)C)C4)c3)ccn2)[nH]c1C` [Example 235, tert-Butyl 3-[2′-(4,5-dimethyl-1H-imidazol-2-yl)-3,4′-bipyridin-5-yl]-2,5-dihydro-1H-pyrrole-1-carboxylate], the IC50 in test [1] is at most 500 nM; in test [2], over 500 nM.

Consider `Cc1nc(-c2cc(-c3cncc(C4=CCNC4)c3)ccn2)[nH]c1C` [Example 236, 5-(2,5-Dihydro-1H-pyrrol-3-yl)-2′-(4,5-dimethyl-1H-imidazol-2-yl)-3,4′-bipyridine], for which the IC50 in test [1] and in test [2] was over 500 nM throughout.

Regarding `CC(=O)N1CC=C(c2cncc(-c3ccnc(-c4nc(C)c(C)[nH]4)c3)c2)C1` [Example 238, 1-(3-(2′-(4,5-Dimethyl-1H-imidazol-2-yl)-3,4′-bipyridin-5-yl)-2,5-dihydro-1H-pyrrol-1-yl)ethanone], the IC50 in test [1] is over 500 nM; in test [2], at most 500 nM.

In the case of `COC(=O)N1CC=C(c2cncc(-c3ccnc(-c4nc(C)c(C)[nH]4)c3)c2)C1` [Example 239, Methyl 3-(2′-(4,5-dimethyl-1H-imidazol-2-y1)-3,4′-bipyridin-5-yl)-2,5-dihydro-1H-pyrrole-1-carboxylate], the IC50 in test [1] and in test [2] was at most 500 nM throughout.

For `Cc1[nH]c(-c2cc(-c3cncc(S(C)(=O)=O)c3)ccn2)nc1C(=O)N1CC[C@H](O)C1` [Example 246, (3S)-1-({5-Methyl-2-[5-(methylsulfonyl)-3,4′-bipyridin-2′-yl]-1H-imidazol-4-yl}carbonyl)pyrrolidin-3-ol], the IC50 in test [1] and in test [2] was at most 500 nM throughout.

As to `Cc1[nH]c(-c2cc(-c3cncc(S(C)(=O)=O)c3)ccn2)nc1C(=O)N(C)C` [Example 251, N,N,5-Trimethyl-2-[5-(methylsulfonyl)-3,4′-bipyridin-2′-yl]-1H-imidazole-4-carboxamide trifluoroacetate salt], the IC50 in test [1] was at most 500 nM; in test [2], at most 100 nM.

With `Cc1[nH]c(-c2cc(-c3cncc(N4CCOCC4)c3)ccn2)nc1C(=O)O` [Example 257, 5-Methyl-2-(5-morpholin-4-yl-3,4′-bipyridin-2′-yl)-1H-imidazole-4-carboxylic Acid Trifluoroacetate Salt], the values for the IC50 in test [1] and in test [2] were at most 500 nM and over 500 nM, respectively.

Take `Cc1[nH]c(-c2cc(-c3cncc(N4CCOCC4)c3)ccn2)nc1C(=O)N(C)C(C)C` [Example 259, N-Isopropyl-N,5-dimethyl-2-(5-morpholin-4-yl-3,4′-bipyridin-2′-yl)-1H-imidazole-4-carboxamide]: the IC50 in test [1] and in test [2] was at most 500 nM throughout.

For the compound `CCN(C)C(=O)c1nc(-c2cc(-c3cncc(N4CCOCC4)c3)ccn2)[nH]c1C` [Example 260, N-Ethyl-N,5-dimethyl-2-(5-morpholin-4-yl-3,4′-bipyridin-2′-yl)-1H-imidazole-4-carboxamide], the IC50 in test [1] and in test [2] was at most 500 nM each time.

As for `COC1CN(C(=O)c2nc(-c3cc(-c4cncc(N5CCOCC5)c4)ccn3)[nH]c2C)C1` [Example 263, 2′-{4-[(3-Methoxyazetidin-1-yl)carbonyl]-5-methyl-1H-imidazol-2-yl}-5-morpholin-4-yl-3,4′-bipyridine], the IC50 in test [1] is at most 100 nM; in test [2] it was at most 50 nM.

For the compound `Cc1[nH]c(-c2cc(-c3cncc(N4CCOCC4)c3)ccn2)nc1C(=O)N[C@@H]1CCN(Cc2ccccc2)C1` [Example 280, N-[(3R)-1-Benzylpyrrolidin-3-yl]-5-methyl-2-(5-morpholin-4-yl-3,4′-bipyridin-2′-yl)-1H-imidazole-4-carboxamide trifluoroacetate salt], the IC50 was at most 500 nM in test [1] and at most 50 nM in test [2].

Take `Cc1[nH]c(-c2cc(-c3cncc(N4CCOCC4)c3)ccn2)nc1CNC1CCOCC1` [Example 283, N-{[5-Methyl-2-(5-morpholin-4-yl-3,4′-bipyridin-2′-yl)-1H-imidazol-4-yl]methyl}tetrahydro-2H-pyran-4-amine]: the IC50 in test [1] is over 500 nM; in test [2], at most 100 nM.

Consider `Cc1[nH]c(-c2cc(-c3cncc(N4CCOCC4)c3)ccn2)nc1CNC1CCCC1` [Example 284, N-{[5-Methyl-2-(5-morpholin-4-yl-3,4′-bipyridin-2′-yl)-1H-imidazol-4-yl]methyl}cyclopentanamine], for which the IC50 was over 500 nM in test [1] and at most 100 nM in test [2].

`Cc1[nH]c(-c2cc(-c3cncc(N4CCOCC4)c3)ccn2)nc1CNC(C)C` [Example 285, N-{[5-Methyl-2-(5-morpholin-4-yl-3,4′-bipyridin-2′-yl)-1H-imidazol-4-yl]methyl}propan-2-amine]: the IC50 in test [1] was over 500 nM; in test [2], at most 500 nM.

In the case of `Cc1[nH]c(-c2cc(-c3cncc(N4CCOCC4)c3)ccn2)nc1CN[C@H]1CCOC1` [Example 286, (3S)-N-{[5-Methyl-2-(5-morpholin-4-yl-3,4′-bipyridin-2′-yl)-1H-imidazol-4-yl]methyl}tetrahydrofuran-3-amine], the results for the IC50 in test [1] and in test [2] were over 500 nM and at most 500 nM, respectively.

On to `Cc1[nH]c(-c2cc(-c3cncc(N4CCOCC4)c3)ccn2)nc1CN[C@@H]1CCOC1` [Example 287, (3R)-N-{[5-Methyl-2-(5-morpholin-4-yl-3,4′-bipyridin-2′-yl)-1H-imidazol-4-yl]methyl}tetrahydrofuran-3-amine], for which the IC50 in test [1] was over 500 nM; in test [2], at most 500 nM.

For `CNCc1nc(-c2cc(-c3cncc(N4CCOCC4)c3)ccn2)[nH]c1C` [Example 288, N-Methyl-1-[5-methyl-2-(5-morpholin-4-yl-3,4′-bipyridin-2′-yl)-1H-imidazol-4-yl]methanamine], the IC50 in test [1] is over 500 nM; in test [2] it was at most 500 nM.

With `Cc1[nH]c(-c2cc(-c3cncc(N4CCOCC4)c3)ccn2)nc1CN(C)C` [Example 289, N,N-Dimethyl-1-[5-methyl-2-(5-morpholin-4-yl-3,4′-bipyridin-2′-yl)-1H-imidazol-4-yl]methanamine], the IC50 is over 500 nM in test [1] and at most 50 nM in test [2].

Take `COCCNCc1nc(-c2cc(-c3cncc(N4CCOCC4)c3)ccn2)[nH]c1C` [Example 290, 2-Methoxy-N-{[5-methyl-2-(5-morpholin-4-yl-3,4′-bipyridin-2′-yl)-1H-imidazol-4-yl]methyl}ethanamine]: the IC50 in test [1] is over 500 nM; in test [2], at most 100 nM.

Regarding `COCCCNCc1nc(-c2cc(-c3cncc(N4CCOCC4)c3)ccn2)[nH]c1C` [Example 291, 3-Methoxy-N-{[5-methyl-2-(5-morpholin-4-yl-3,4′-bipyridin-2′-yl)-1H-imidazol-4-yl]methyl}propan-1-amine], the figures for the IC50 in test [1] and in test [2] were over 500 nM and at most 50 nM, respectively.

Regarding `Cc1[nH]c(-c2cc(-c3cncc(N4CCOCC4)c3)ccn2)nc1CN1CCOCC1` [Example 292, 2′-[5-Methyl-4-(morpholin-4-ylmethyl)-1H-imidazol-2-yl]-5-morpholin-4-yl-3,4′-bipyridine], the IC50 in test [1] was at most 500 nM; in test [2], at most 100 nM.

For the compound `CC(=O)N1CCC(c2c[nH]c(-c3cc(-c4cnn(Cc5ccc(Cl)cc5)c4)ccn3)n2)C1` (centres unmarked) [Example 301, 2-[4-(1-Acetylpyrrolidin-3-yl)-1H-imidazol-2-yl]-4-[1-(4-chlorobenzyl)-1H-pyrazol-4-yl]pyridine trifluoroacetate salt], the IC50 in test [1] was at most 500 nM; in test [2], over 500 nM.

Regarding `O=S(=O)(c1ccccc1)N1CCC(c2c[nH]c(-c3cc(-c4cnn(Cc5ccc(Cl)cc5)c4)ccn3)n2)C1` (centres unmarked) [Example 302, 4-[1-(4-Chlorobenzyl)-1H-pyrazol-4-yl]-2-{4-[1-(phenylsulfonyl)pyrrolichn-3-yl]-1H-imidazol-2-yl}pyridine trifluoroacetate salt], the IC50 in test [1] and in test [2] was at most 500 nM throughout.

For the compound `CC(=O)N1CCC(c2c[nH]c(-c3cc(-c4cnn(Cc5ccc(Cl)cc5)c4)ccn3)n2)C1` (stereo not drawn) [Example 303, 2-[4-(1-Acetylpyrrolidin-3-yl)-1H-imidazol-2-yl]-4-[l-(4-chlorobenzyl)-1H-pyrazol-4-yl]pyridine trifluoroacetate salt], the IC50 in test [1] was at most 500 nM; in test [2], over 500 nM.

For `O=S(=O)(c1ccccc1)N1CCC(c2c[nH]c(-c3cc(-c4cnn(Cc5ccc(Cl)cc5)c4)ccn3)n2)C1` (centres unmarked) [Example 305, 4-[1-(4-Chlorobenzyl)-1H-pyrazol-4-yl]-2-{4-[1-(phenylsulfonyl)pyrrolidin-3-yl]-1H-imidazol-2-yl}pyridine trifluoroacetate salt], the IC50 in test [1] and in test [2] was at most 500 nM in each case.

Turning to `COc1ccccc1Nc1nc(-c2cc(-c3cncc(N4CCOCC4)c3)ccn2)[nH]c1C` [Example 307, N-(2-Methoxyphenyl)-5-methyl-2-(5-morpholin-4-yl-3,4′-bipyridin-2′-yl)-1H-imidazol-4-amine Trifluoroacetate Salt], the results for the IC50 in test [1] and in test [2] were at most 500 nM and at most 50 nM, respectively.

Consider `Cc1[nH]c(-c2cc(-c3cncc(N4CCOCC4)c3)ccn2)nc1Nc1ccnnc1` [Example 308, N-[5-Methyl-2-(5-morpholin-4-yl-3,4′-bipyridin-2′-yl)-1H-imidazol-4-yl]pyridazin-4-amine trifluoroacetate salt], for which the IC50 in test [1] was at most 500 nM; in test [2], at most 50 nM.
